# pEC50, pKi: −log10 of the molar value. Where a SMILES comes first, the peptide text is derived from it.
# Legend:
# [1] = molecular target: T1, human NK2 Receptor (hNK2R) (Homo sapiens, UniProt P21452); test: [125I]-NKA radioligand competition binding to human recombinant NK2Rs (CHO-hNK2 membranes)
# T1 sequence (P21452 1-398): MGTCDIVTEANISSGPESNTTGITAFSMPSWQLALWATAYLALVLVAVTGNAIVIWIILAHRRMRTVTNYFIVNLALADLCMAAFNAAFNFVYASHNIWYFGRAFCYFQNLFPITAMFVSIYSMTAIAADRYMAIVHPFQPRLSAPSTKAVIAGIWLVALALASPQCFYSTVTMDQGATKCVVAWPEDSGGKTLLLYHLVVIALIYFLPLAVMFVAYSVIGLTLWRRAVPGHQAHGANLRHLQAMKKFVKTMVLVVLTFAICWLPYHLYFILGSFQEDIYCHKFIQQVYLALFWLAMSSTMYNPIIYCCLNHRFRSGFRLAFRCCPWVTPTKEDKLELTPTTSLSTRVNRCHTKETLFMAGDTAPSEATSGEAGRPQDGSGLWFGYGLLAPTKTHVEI
# Protocol: After removal of the supernatant the cell pellet was washed and collected by re-suspension in PBS and centrifugation.
# Frozen pellets were thawed and homogenized in 10 volumes (w/v) of membrane preparation buffer (50 mM HEPES pH 7.4, 1 mM EDTA, 50 μg/mL bacitracin and protease inhibitors) using a Polytron Ultraturrax (twice for 15 s per cycle). […] Protein concentration was determined using BioRad Protein Assay (Milan, Italy) with a BSA standard curve.
# [2] = molecular target: T2, recombinant hNK2R expressed in CHO cells (Homo sapiens, UniProt P21452); test: Intracellular calcium mobilization (FLIPR) in CHO-hNK2 cells; format: cell-based
# T2 sequence (P21452 1-398): T1 sequence (P21452 1-398)
# Protocol: CHO-hNK1 and CHO-hNK2 cells were seeded into black walled clear-bottom 384-well plates) at a density of 10,000 and 15,000 cells per well in 50 μL culture media, respectively, and grown overnight at 37° C. in a humidified CO2-incubator. Cells were washed in washing buffer using the EMBLA 384 instrument, leaving 20 μL of buffer per well after the final aspiration. Cells were then incubated at 37° C. with the cytoplasmic Ca2+ indicator Fluo-4 AM (final concentration 1 μM) in assay buffer (20 mM HEPES, 145 mM NaCl, 5 mM KCl, 5.5 mM glucose, 1 mM MgCl2 and 2 mM CaCl2, pH 7.4, 0.05% Pluronic F-127 and 0.1% BSA) containing 2.5 mM probenecid for […] (cell loading). Cells were then washed 3 times in washing buffer (20 mM HEPES, 145 mM NaCl, 5 mM KCl, 5.5 mM glucose, 1 mM MgCl2 and 2 mM CaCl2, pH 7.4 and 2.5 mM probenecid) using the EMBLA 384 instrument, leaving 30 μL of buffer in each well after the last wash. Loaded cell plates were transferred to the FLIPR machine and calcium responses were monitored as described below. A dual read-out FLIPR protocol was used, allowing for characterization of both agonist and antagonist profiles. For quality control, in each compound plate the signal was monitored by evaluating the responses to the reference standards (NKA and Substance P).
# Concentration response curves of compounds were run in duplicate on two different occasions from the same stock solutions. Test solutions were prepared from 10 mM stock solutions in DMSO and 1 μL of each solution was stamped into V-bottom assay plates containing 49 μL assay buffer. The final concentration of DMSO was 0.5% in each well.
# [3] = Pharmacokinetics in rat plasma after cassette IV bolus dosing; details: Sprague-Dawley, in vivo, iv
# Protocol: The concentrations of compounds (SEQ ID NOS: 1-11) were measured in rat plasma after intravenous (IV) bolus dosing to determine pharmacokinetic profiles of individual compounds.
# Animal preparation: In vivo studies were performed in anesthetized adult Sprague Dawley rats. Rats were anesthetized with urethane (1.2-1.4 g/kg subcutaneous injection). Surgical procedures were then performed with the addition of isoflurane anesthesia (0.05-1.5% in 02) as needed. A venous cannula was inserted into the jugular vein for intravenous (IV) administration of compounds.
# In vivo dosing and plasma sampling: Compounds were divided into two groups (soluble and insoluble). Each group was dosed as a cassette in which four compounds (100 μg/kg each compound) were combined into a single IV bolus injection to anesthetized adult Sprague-Dawley rats. Soluble compounds were dissolved in saline. Insoluble compounds were dissolved in a 10% ethanol/saline solution. Rats were cassette dosed based on weight using 0.1 mg/mL solutions of individual compounds. Blood samples (700 μL) were collected using a carotid artery cannula into EDTA tubes containing ascorbic acid (final concentration 1%), and plasma was isolated.
# Bioanalytical assay: A reversed-phase HPLC with Turbo Ion Spray MS/MS detection method was developed for bioanalysis. Mass spec transition and settings were individually optimized for each compound and then compounds were cassetted for HPLC method development and optimization. [^13C9; ^15N] [Lys5,MeLeu9,Nle10]-NKA(4-10) was used as an internal standard (IS). Analyte-to-IS peak area ratios for individual compounds were used to create linear calibration curves (1-20 ng/mL) using 1/×2 weighted least-squares regression analysis for evaluation of method linearity, precision and accuracy. For plasma concentration measurements, plasma samples were spiked with IS, processed by extraction, and analyzed using LC-MS/MS. Positive (M+H)+ ions for individual compounds and IS were monitored in MRM mode.
# [4] = Saline solubility of heptapeptides; format: physicochemical
# Protocol: Heptapeptides A-K shown below in Table 1 (SEQ ID NOs: 1-11) were synthesized according to standard Fmoc-mediated solid-phase techniques and purified under typical C18 reverse-phase conditions.
# Compounds D-K were considered to be insoluble in saline (<1 mg/mL).
structure (smiles),measurement,setting,value
"CCCC[C@H](NC(=O)[C@H](CC(C)C)N(C)C(=O)CNC(=O)[C@@H](NC(=O)[C@H](Cc1ccccc1)NC(=O)[C@H](CCCNC(=N)N)NC(=O)[C@@H](N)CC(=O)O)C(C)C)C(N)=O [Compound B, Asp-Arg-Phe-Val-Gly-(NMe-Leu)-Nle-NH2] (HELM PEPTIDE1{D.R.F.V.G.[meL].[Nle].[am]}$$$$V2.0; N-terminus assumed)",pKi,"[1]; displacement of 0.1 nM [125I]-NKA, CHO-hNK2 membranes, read-out: hNK2 binding Ki",9.23
same,hNK2 selectivity ratio,[1]; ratio of Kis hNK1R/hNK2R,557.83
same,pEC50,"[2]; calcium mobilization, CHO-hNK2 cells, read-out: hNK2 EC50",10.10
same,hNK2 selectivity ratio,[2]; ratio of EC50s hNK1R/hNK2R,70
same,half-life,[3],0.2 to 1.2 min
same,level at 10 min,[3]; 100 ug/kg,< 1 ng/mL
same,solubility,[4],> 20 mg/mL

# Source: patent US11352391B2, “Compositions for inducing urinary voiding and defecation” (Dignify Therapeutics, LLC, priority 2017, dated 2022)
